Series [1] can be described thus: Cmax in Wistar rat at 1 mg/kg, po after 0.5 hrs by HPLC-MS/MS analysis. It counts as ADME, organism-based. Details: dose 1 mg/kg, route oral. Particulars: in vivo.
Series [2] in a line: Oral bioavailability in Wistar rat at 1 mg/kg by HPLC-MS/MS analysis. The note with it: in vivo. The format is ADME, organism-based.
A further series deals with T1, CYP19 (aromatase) (Homo sapiens, UniProt P11511).
T1 sequence (P11511 whole entry): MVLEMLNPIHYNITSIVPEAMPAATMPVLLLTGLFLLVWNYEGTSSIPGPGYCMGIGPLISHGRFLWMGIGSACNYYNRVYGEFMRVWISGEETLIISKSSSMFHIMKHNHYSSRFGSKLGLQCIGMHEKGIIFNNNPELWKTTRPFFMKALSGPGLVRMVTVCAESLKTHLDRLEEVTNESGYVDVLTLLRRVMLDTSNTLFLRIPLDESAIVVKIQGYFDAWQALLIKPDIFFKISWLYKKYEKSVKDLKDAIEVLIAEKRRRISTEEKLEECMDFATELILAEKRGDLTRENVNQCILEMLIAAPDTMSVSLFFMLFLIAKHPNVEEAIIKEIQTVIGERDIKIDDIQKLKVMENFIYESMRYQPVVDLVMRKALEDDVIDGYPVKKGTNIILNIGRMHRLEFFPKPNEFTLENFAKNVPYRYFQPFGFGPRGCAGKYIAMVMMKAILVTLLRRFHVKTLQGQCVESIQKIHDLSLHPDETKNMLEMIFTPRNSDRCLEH
As to the kind of experiment: Inhibition of human recombinant CYP19 using [1beta3H]androstenedione as substrate at 500 nM. The note with it: recombinant human CYP19, probe [1beta3H]androstenedione.

Series [3] deals with T2, Cytochrome P450 11B1, mitochondrial (Homo sapiens, UniProt P15538).
T2 sequence (P15538 whole entry): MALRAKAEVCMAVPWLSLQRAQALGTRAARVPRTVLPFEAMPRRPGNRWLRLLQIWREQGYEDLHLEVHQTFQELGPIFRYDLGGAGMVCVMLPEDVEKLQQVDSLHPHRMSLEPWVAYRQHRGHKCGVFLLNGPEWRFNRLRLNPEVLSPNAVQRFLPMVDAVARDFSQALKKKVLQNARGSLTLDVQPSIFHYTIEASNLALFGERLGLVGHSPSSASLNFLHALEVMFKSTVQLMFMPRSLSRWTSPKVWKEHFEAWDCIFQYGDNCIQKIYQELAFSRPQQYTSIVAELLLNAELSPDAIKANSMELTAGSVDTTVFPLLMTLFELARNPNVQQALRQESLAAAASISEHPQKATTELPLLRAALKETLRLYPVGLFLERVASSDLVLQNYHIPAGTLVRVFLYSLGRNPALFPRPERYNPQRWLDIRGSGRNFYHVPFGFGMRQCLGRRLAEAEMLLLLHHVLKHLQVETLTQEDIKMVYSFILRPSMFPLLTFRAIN
Description: Inhibition of human CYP11B1 expressed in hamster V79MZ cells using [3H]-11-deoxycorticosterone as substrate after 1 hr by HPLC analysis

In series [4] the target is T3, Cytochrome P450 11B2, mitochondrial (Homo sapiens, UniProt P19099).
T3 sequence (P19099 whole entry): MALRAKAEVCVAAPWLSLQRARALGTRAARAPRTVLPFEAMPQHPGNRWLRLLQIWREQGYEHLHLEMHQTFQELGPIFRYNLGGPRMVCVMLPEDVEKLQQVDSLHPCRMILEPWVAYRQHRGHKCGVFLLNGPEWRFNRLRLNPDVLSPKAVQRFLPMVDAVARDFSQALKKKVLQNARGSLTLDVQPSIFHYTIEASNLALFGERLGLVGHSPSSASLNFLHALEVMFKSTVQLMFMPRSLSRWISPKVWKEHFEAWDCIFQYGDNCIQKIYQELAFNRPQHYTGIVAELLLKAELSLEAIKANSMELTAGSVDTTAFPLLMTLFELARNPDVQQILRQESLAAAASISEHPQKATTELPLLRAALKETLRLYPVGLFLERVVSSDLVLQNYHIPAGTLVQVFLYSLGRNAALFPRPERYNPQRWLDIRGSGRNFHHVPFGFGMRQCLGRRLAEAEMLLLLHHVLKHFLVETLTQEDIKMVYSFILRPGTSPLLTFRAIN
The format is cell-based. Particulars: V79MZ, 1 h.

The nature of series [5]: AUC in Wistar rat at 1 mg/kg, iv by HPLC-MS/MS analysis. It counts as ADME, organism-based. The note with it: plasma. Details: dose 1 mg/kg, route intravenous.
For series [6], the target named is T3, Cytochrome P450 11B2, mitochondrial.
Description: Inhibition of human CYP11B2 expressed in hamster V79MZ cells using [3H]-11-deoxycorticosterone as substrate after 1 hr by HPLC analysis
A further series has as its target T4, CYP17 (Homo sapiens, UniProt P05093).
T4 sequence (P05093 whole entry): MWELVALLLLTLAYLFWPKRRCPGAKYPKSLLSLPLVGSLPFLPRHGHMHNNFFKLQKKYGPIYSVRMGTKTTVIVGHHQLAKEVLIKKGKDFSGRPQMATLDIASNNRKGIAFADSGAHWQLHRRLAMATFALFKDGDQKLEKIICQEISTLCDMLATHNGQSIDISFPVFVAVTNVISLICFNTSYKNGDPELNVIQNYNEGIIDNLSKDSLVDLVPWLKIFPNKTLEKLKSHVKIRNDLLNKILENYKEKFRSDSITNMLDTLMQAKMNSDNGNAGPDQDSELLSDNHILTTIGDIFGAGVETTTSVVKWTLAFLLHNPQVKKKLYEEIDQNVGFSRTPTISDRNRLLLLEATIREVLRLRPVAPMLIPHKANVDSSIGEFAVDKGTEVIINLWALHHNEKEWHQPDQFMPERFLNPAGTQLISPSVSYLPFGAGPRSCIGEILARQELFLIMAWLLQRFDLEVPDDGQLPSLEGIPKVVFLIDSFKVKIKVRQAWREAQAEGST
As to the kind of experiment: Inhibition of human recombinant CYP17 expressed in Escherichia coli using progesterone as substrate at 2 uM. The note with it: probe progesterone.

A short description of series [7]: Terminal half life in Wistar rat at 1 mg/kg, iv by HPLC-MS/MS analysis. The format is ADME, organism-based. Details: dose 1 mg/kg, route intravenous. The note with it: in vivo, read-out: beta t1/2 (converted).
The next series concerns V79MZ. As to the kind of experiment: Selectivity ratio of IC50 for human CYP11B1 expressed in hamster V79MZ cells to IC50 for human CYP11B2 expressed in hamster V79MZ cells. The format is cell-based.
Series [8] is described as follows: Terminal half life in Wistar rat at 1 mg/kg, po by HPLC-MS/MS analysis. The format is ADME, organism-based. Details: dose 1 mg/kg, route oral. Particulars: in vivo, read-out: beta t1/2 (converted).
Series [9] in a line: AUC in Wistar rat at 1 mg/kg, po by HPLC-MS/MS analysis. The format is ADME, organism-based. Details: dose 1 mg/kg, route oral. Particulars: plasma.

Some results are limits rather than exact numbers.

Regarding `[O-][S+](c1cccc(OC(F)(F)F)c1)c1c(O)c(-c2cccnc2)cc2ccccc12` (centres undefined), in series [1], the Cmax turned out to be 40.4 ng/mL. The bioavailability in series [2] is 19%. For the same compound, the inhibition at 0.5 µM on CYP19 (aromatase) is less than 5%. For the same compound, the values for the IC50 in [3] and in [6] were 5810 nM and 14 nM, respectively. In addition, the inhibition in series [4] is 83%. The AUC in series [5] was determined as 1780 ng·h/mL; in series [9], 335 ng·h/mL. In addition, the inhibition at 2 µM at CYP17 was less than 5%. Besides, the half-life in series [7] was 4 h; in series [8], 7 h. Moreover, in the series on V79MZ, the Ratio IC50 turned out to be 415.

Take `COc1cccc([S+]([O-])c2c(O)c(-c3cccnc3)cc3ccccc23)c1` (centres undefined): at CYP19 (aromatase), the inhibition at 0.5 µM is less than 5%. Moreover, the values for the IC50 in [3] and in [6] were 7310 nM and 27 nM, respectively. For the same compound, the inhibition in series [4] amounted to 87%. Also, the inhibition at 2 µM on CYP17 was less than 5%. Further, the Ratio IC50 in the series with V79MZ was 271.

On to `[O-][S+](c1cc(C(F)(F)F)cc(C(F)(F)F)c1)c1c(O)c(-c2cccnc2)cc2ccccc12` (centres undefined), for which the inhibition at 0.5 µM on CYP19 (aromatase) is less than 5%. Further, the figures for the concentration for half-maximal inhibition (IC50) in series [3] and in [6] were 9350 nM and 33 nM, respectively. Moreover, the inhibition in series [4] was found to be 78%. In addition, on CYP17, the inhibition at 2 µM was less than 5%. Also, the Ratio IC50 in the series on V79MZ came out at 283.

(Values after ChEMBL document CHEMBL3352541, “1-Phenylsulfinyl-3-(pyridin-3-yl)naphthalen-2-ols: a new class of potent and selective aldosterone synthase inhibitors” (Eur J Med Chem, 2015).)
